Paper PMC6269693, “Synthesis and Biological Evaluation of RGD-Conjugated MEK1/2 Kinase Inhibitors for Integrin-Targeted Cancer Therapy” (Molecules, 2013)
Like-named read-outs stand apart in the source and are kept apart here.

Key:
melanoma A375 cells [1] = assay: cells; conditions: Homo sapiens, A-375, 72 h
Experimental: (§2) A375, U87, A549 cell line, which were obtained from the National Platform of Experimental Cell Resources for Sci-Tech (Beijing, China), were cultured in Dulbecco’s modified Eagle’s medium (DMEM; Hyclone, Logan, UT, USA), supplemented with 10% heat-inactivated FBS (Hyclone), 100 U/mL penicillin, and 100 μg/mL streptomycin (Wako Pure Chemical Industries, Ltd., Osaka, Japan).
(§3) The cytotoxicity of the RGD-MKE1 conjugates on A375 melanoma cells, ERK signal pathway hyper-activated cell line, was studied in vitro by using an SRB assay. A375 cells (4.5 × 10^3) or U87 cells (5.0 × 10^3) were plated in each well of a 96-well tissue culture plate. Medium supplemented with 10% FBS was added, and cells were allowed to adhere for 24h. […] Then the medium was removed from the 96-well plate, and 10% ice-cold trichloroacetic acid (TCA, 200 μL) was added. The plate was kept at 4 for one hour after which was washed five times with deionized water, then stained with Sulforhodamine B (SRB, 100 μL, Sigma, St. Louis, MO, USA) before air drying. After washing with 1% acetic acid, the bound dye was solubilized with Tris base A (Sigma) and 100 μL of each sample were transferred into a 96-well plate, and then absorbance was read in a 96-well plate reader at 540 nm.Inhibitory ratio (%) = [(ODcontrol − ODtreated)/(ODcontrol)] × 100%.

inactive MEK1 kinase = inactive MEK1 kinase (Homo sapiens, UniProt Q02750); assay: HTRF phosphor-MEK1 assay (BRAF-MEK1 assay); format: biochemical; conditions: for BRAF-MEK1 assay (%) 0.01μM / BRAF-MEK1 assay (%) 0.1 μM / BRAF-MEK1 assay (%) 1 μM: inhibition of phosphorylation of inactive MEK1, mean of three ± SD
inactive MEK1 kinase, sequence (Q02750 whole entry): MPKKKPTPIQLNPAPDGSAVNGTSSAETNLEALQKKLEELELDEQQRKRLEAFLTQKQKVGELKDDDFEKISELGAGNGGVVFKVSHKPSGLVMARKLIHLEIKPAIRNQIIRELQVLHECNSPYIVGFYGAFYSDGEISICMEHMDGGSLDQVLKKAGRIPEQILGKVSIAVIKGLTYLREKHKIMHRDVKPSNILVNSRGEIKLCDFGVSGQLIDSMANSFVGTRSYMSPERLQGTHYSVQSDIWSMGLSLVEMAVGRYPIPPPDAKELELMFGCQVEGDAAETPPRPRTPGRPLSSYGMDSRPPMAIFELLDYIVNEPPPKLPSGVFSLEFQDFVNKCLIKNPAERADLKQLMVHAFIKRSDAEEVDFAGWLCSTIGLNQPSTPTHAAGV
Experimental: (§1) Phosphorylated MEK1 was determined quantitatively by formation of a complex with specific Eu-labeled anti-phospho p44/42 MAPK (Thr202/Tyr204) antibody and anti-GST-XL665.After 3 h, time-resolved fluorescence was read using a FlexStation 3 plate reader (Molecular Devices, Sunnyvale, CA, USA). […] The curve-fitting software GraphPad Prism 4.0 was used to generate the curves and determine the IC50 values. […] The calculation method of HTRF ratio was the same with that in HTRF phosphor-MEK1 assay.

active MEK1 kinase = molecular target: T1, active MEK1 kinase (Homo sapiens, UniProt Q02750); assay: HTRF phosphor-ERK2 assay (MEK1-ERK2 assay); format: biochemical; conditions: inhibition of active MEK1 phosphorylating inactive ERK2, mean of three ± SD
T1 construct: purchased Carna Biosciences
T1 sequence (Q02750 whole entry): as above
Experimental: as §1

melanoma A375 cells [2] = conditions: for IC50: 72 h
Experimental: as §2, §3

U87 glioblastoma cells = assay: In vitro anti-proliferation assay by the SRB method, U87; format: cell-based, human
Experimental: as §2, §3

[3] = tested on: p-ERK1/2 in melanoma A375 cells; assay: Western blotting of p-ERK1/2 in A375 cell lysates; format: cell-based; conditions: 10 μM, 2 h
Experimental: To evaluate the expression levels of ERK singal pathway after treated with conjugates, A375 cells were treated with compounds for 2 h respectively. Confluent cells were washed with ice-cold phosphate-buffered saline (PBS), and treated with lysis buffer (Beyotime Institute of Biotechnology, Suzhou, China) on ice for 1 h. Then the lysates were collected by scraping from the plates and then centrifuged at 13,000 rpm at 4 °C for 15 min. The protein concentration was quantitated using a Pierce BCA Protein Assay Kit (Thermo Scientific, Rockford, IL, USA) ona FlexStation 3 Benchtop Multi-Mode Microplate Reader at 562 nm (Molecular Devices). An equal amount of proteins (10 μg per lane) for each sample were analyzed by SDS-PAGE on a 10% gel. After electro-blotting to PVDF membrane (Millipore, Billerica, MA, USA) at 400 mA for 1 h, membranes were blocked with 5% nonfat dry milk for 1 h at room temperature. Membrane were washed with 0.1% PBST three times and then incubated with primary antibodies overnight at 4 °C. Antibodies against pERK and ERK (Cell Signaling Technology, Inc., Danvers, MA, USA) were utilized as the primary antibodies. […] Finally, protein products were analyzedby Image Lab^TM software(ChemiDoc^TM XRS System, BIO-RAD, Hercules, CA, USA) with. […]

Row | Compound | BRAF-MEK1 assay (%) 0.01μM (inactive MEK1 kinase) [%] | BRAF-MEK1 assay (%) 0.1 μM (inactive MEK1 kinase) [%] | BRAF-MEK1 assay (%) 1 μM (inactive MEK1 kinase) [%] | MEK1-ERK2 assay (%) 1 μM (active MEK1 kinase) [%] | MEK1-ERK2 assay (%) 10 μM (active MEK1 kinase) [%] | other results
1 | O=C(O)CCC(=O)NCCCONC(=O)c1ccc(F)c(F)c1Nc1ccc(I)cc1F [Compound 8b, 4-((3-((3,4-Difluoro-2-((2-fluoro-4-iodophenyl)amino)benzamido)oxy)propyl)amino)-4-oxobutanoic acid] | 12.5 ± 3.2 | 39.6 ± 9.3 | 57.5 ± 1.7 | 29.1 ± 12.0 | 83.4 ± 1.2 | IC50 (melanoma A375 cells [1]; read-out: A375 cell IC50): 14200 nM
2 | O=C(O)CCC(=O)OC[C@H](O)CONC(=O)c1ccc(F)c(F)c1Nc1ccc(I)cc1F [Compound 11, (S)-4-(3-((3,4-difluoro-2-((2-fluoro-4-iodophenyl)amino)benzamido)oxy)-2-hydroxypropoxy)-4-oxobutanoic Acid] | – | – | – | – | – | fold loss of antitumor efficacy compared to 13 (melanoma A375 cells [2]; A375 IC50 vs 13): ~10 fold; IC50 (melanoma A375 cells [1]; read-out: A375 proliferation assay IC50): 230 nM
3 | NCCOCCONC(=O)c1ccc(F)c(F)c1Nc1ccc(I)cc1F [Compound 7e, N-(2-(2-aminoethoxy)ethoxy)-3,4-difluoro-2-((2-fluoro-4-iodophenyl)amino)benzamide] | – | – | – | – | – | melting point: 197.5 to 198.5 °C
4 | N=C(N)NCCC[C@@H]1NC(=O)[C@H](CCCCNC(=O)CCC(=O)NCCCONC(=O)c2ccc(F)c(F)c2Nc2ccc(I)cc2F)NC(=O)[C@@H](Cc2ccc(O)cc2)NC(=O)[C@H](CC(=O)O)NC(=O)CNC1=O [Compound 9b] | 6.7 ± 8.5 | 58.5 ± 8.5 | 77.6 ± 7.5 | 69.9 ± 3.2 | 93.5 ± 2.2 | IC50 (melanoma A375 cells [2]): 2100 nM; U87 cell-growth inhibition (U87 glioblastoma cells; 10 µM, SRB method): 21.3%; IC50 (inactive MEK1 kinase): 47.9 nM; inhibition of the phosphorylation of ERK1/2 protein [3]: up to 90%
5 | c(RGDyK) [cRGD peptides, reference compound] | – | – | – | – | – | inhibition of the phosphorylation of ERK1/2 protein [3]: no inhibitory activity
6 | O=C(O)CCC(=O)NCCCCONC(=O)c1ccc(F)c(F)c1Nc1ccc(I)cc1F [Compound 8c, 4-((4-((3,4-Difluoro-2-((2-fluoro-4-iodophenyl)amino)benzamido)oxy)butyl)amino)-4-oxobutanoic acid] | – | – | – | – | – | melting point: 120.9 to 121.9 °C
7 | O=C(NOC[C@H](O)CO)c1ccc(F)c(F)c1Nc1ccc(I)cc1F [PD0325901, reference compound] | – | – | – | – | – | IC50 (melanoma A375 cells [1]; read-out: A375 cell IC50): 0.45 nM; inhibition at 1 µM (U87 glioblastoma cells; Homo sapiens, U-87 MG, high concentrations (>1 µM), concentration-independent, 72 h, read-out: inhibitory activity in U87 cells): ~50%
8 | N=C(N)NCCC[C@@H]1NC(=O)[C@H](CCCCNC(=O)CCC(=O)NCCONC(=O)c2ccc(F)c(F)c2Nc2ccc(I)cc2F)NC(=O)[C@@H](Cc2ccc(O)cc2)NC(=O)[C@H](CC(=O)O)NC(=O)CNC1=O [Compound 9a] | 0.3 ± 0.0 | 30.0 ± 4.7 | 74.2 ± 7.2 | 66.5 ± 7.7 | 88.4 ± 1.4 | IC50 (melanoma A375 cells [2]): 4400 nM
